Laboratory results published in patent publication US20130230459A1, “RADIOLABELLED mGluR2 PET LIGANDS” (Janssen Pharmaceuticals, Inc., priority 2010, published 2013).
Values joined by “and” are separate entries in the source; they are usually repeats but may differ in a detail not shown here. Equal entries are not always repeated.

What was measured:
[1] = Biodistribution studies of 11C tracers; assay type: in vivo, Wistar rats; details: for SUV Blood / SUV Cerebellum / SUV Cerebrum total / SUV Cortex / SUV Hippocampus / SUV Striatum: normalized for body weight;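 as to Total brain uptake: percentage of injected dose (% ID)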
Method in brief: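 Healthy male Wistar rats (n=3 per time point) received about 11 or 22 MBq tracer i.v. via tail vein under isoflurane; sacrificed at 2, 30 and 60 min p.i. Gamma counting of blood and organs gave %ID and %ID/g, with blood taken as 7% of body mass.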

mGluR2 = target: T1, mGluR2 (Rattus norvegicus, UniProt P31421); assay: MicroPET imaging: baseline, blocking and chase experiments; assay type: in vivo, Wistar rats
T1 construct: from tissue; host or cells: brain of living male Wistar rats (in vivo microPET)
T1 sequence (P31421 19-872): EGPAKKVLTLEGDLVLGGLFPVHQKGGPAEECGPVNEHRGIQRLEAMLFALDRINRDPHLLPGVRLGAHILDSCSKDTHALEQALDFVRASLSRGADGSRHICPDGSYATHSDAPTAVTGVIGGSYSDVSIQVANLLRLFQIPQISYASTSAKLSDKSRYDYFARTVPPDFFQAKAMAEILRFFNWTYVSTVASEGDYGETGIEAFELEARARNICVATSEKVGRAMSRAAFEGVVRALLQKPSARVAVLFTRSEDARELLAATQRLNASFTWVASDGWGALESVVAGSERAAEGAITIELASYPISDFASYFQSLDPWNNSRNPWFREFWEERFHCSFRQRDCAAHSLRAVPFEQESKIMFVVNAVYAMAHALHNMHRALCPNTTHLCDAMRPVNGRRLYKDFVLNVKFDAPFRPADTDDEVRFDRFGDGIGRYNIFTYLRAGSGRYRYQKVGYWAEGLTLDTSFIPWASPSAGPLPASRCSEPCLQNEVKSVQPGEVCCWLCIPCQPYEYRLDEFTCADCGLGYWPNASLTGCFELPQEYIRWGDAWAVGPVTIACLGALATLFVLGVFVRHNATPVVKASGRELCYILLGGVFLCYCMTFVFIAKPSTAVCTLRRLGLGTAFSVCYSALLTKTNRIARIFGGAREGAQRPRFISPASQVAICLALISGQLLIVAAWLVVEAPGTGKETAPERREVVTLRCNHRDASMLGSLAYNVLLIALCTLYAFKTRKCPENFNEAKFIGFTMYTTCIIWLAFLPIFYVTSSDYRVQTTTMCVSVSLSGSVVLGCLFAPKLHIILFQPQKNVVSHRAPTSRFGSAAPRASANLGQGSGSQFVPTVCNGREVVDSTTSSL
Method in brief: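 Healthy male Wistar rats under isoflurane; 30-60 MBq [11C]tracer i.v., 90 min dynamic microPET, regional SUV time-activity curves. Self-block: B-4 10 mg/kg s.c. 30 min pre-tracer; chase: i.v. 30 min post-tracer with B-4 3 mg/kg, compound B 4, 1, 0.3 or 0.1 mg/kg, compound A 1 mg/kg or ritanserin 0.3 mg/kg.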

[11CH3]Oc1ccc(F)cc1C1CCN(c2ccn3c(CC4CC4)nnc3c2Cl)CC1 [[^11C]B-4, 8-chloro-3-(cyclopropylmethyl)-7-[4-[5-fluoro-2-[^11C]methoxyphenyl]-1-piperidinyl]-1,2,4-triazolo[4,3-a]pyridine]
% ID Blood ([1]; 2 min p.i.): 5.6 % ID and 5.6 ± 0.4 % ID | % ID Carcass ([1]; 2 min p.i.): 42.0 ± 2.0 % ID | % ID Cerebellum ([1]; 2 min p.i.): 0.10 % ID and 0.100 ± 0.000 % ID | % ID Cerebrum total ([1]; 2 min p.i.): 0.45 % ID and 0.450 ± 0.029 % ID | % ID Cortex ([1]; 2 min p.i.): 0.092 ± 0.019 % ID | % ID Heart ([1]; 2 min p.i.): 4.1 ± 0.3 % ID | % ID Hippocampus ([1]; 2 min p.i.): 0.010 ± 0.001 % ID | % ID Intestines ([1]; 2 min p.i.): 7.3 ± 0.6 % ID | % ID Kidneys ([1]; 2 min p.i.): 6.4 ± 0.6 % ID | % ID Liver ([1]; 2 min p.i.): 29.9 ± 2.0 % ID | % ID Lungs ([1]; 2 min p.i.): 2.9 ± 0.4 % ID | % ID Rest of cerebrum ([1]; 2 min p.i.): 0.344 ± 0.047 % ID | % ID Spleen + Pancreas ([1]; 2 min p.i.): 1.9 ± 0.2 % ID | % ID Stomach ([1]; 2 min p.i.): 1.5 ± 0.3 % ID | % ID Striatum ([1]; 2 min p.i.): 0.014 ± 0.001 % ID | % ID Urine ([1]; 2 min p.i.): 0.0 ± 0.0 % ID | Total brain uptake ([1]; 2 min p.i.): 0.58 % ID and 0.58 ± 0.0 % ID | SUV Blood ([1]; 2 min p.i.): 0.80 ± 0.01 | SUV Cerebellum ([1]; 2 min p.i.): 1.46 and 1.46 ± 0.02 | SUV Cerebrum total ([1]; 2 min p.i.): 1.39 ± 0.01 | SUV Cortex ([1]; 2 min p.i.): 1.65 ± 0.02 | SUV Hippocampus ([1]; 2 min p.i.): 1.04 ± 0.01 | SUV Striatum ([1]; 2 min p.i.): 1.46 and 1.46 ± 0.02 | % ID Blood ([1]; 30 min p.i.): 2.8 ± 0.3 % ID | % ID Carcass ([1]; 30 min p.i.): 64.3 ± 5.8 % ID | % ID Cerebellum ([1]; 30 min p.i.): 0.191 ± 0.030 % ID | % ID Cerebrum total ([1]; 30 min p.i.): 0.694 ± 0.117 % ID | % ID Cortex ([1]; 30 min p.i.): 0.165 ± 0.081 % ID | % ID Heart ([1]; 30 min p.i.): 2.5 ± 0.4 % ID | % ID Hippocampus ([1]; 30 min p.i.): 0.026 ± 0.007 % ID | % ID Intestines ([1]; 30 min p.i.): 8.3 ± 2.0 % ID | % ID Kidneys ([1]; 30 min p.i.): 4.0 ± 0.7 % ID | % ID Liver ([1]; 30 min p.i.): 14.2 ± 2.4 % ID | % ID Lungs ([1]; 30 min p.i.): 0.7 ± 0.1 % ID | % ID Rest of cerebrum ([1]; 30 min p.i.): 0.469 ± 0.047 % ID | % ID Spleen + Pancreas ([1]; 30 min p.i.): 1.4 ± 0.2 % ID | % ID Stomach ([1]; 30 min p.i.): 2.1 ± 0.3 % ID | % ID Striatum ([1]; 30 min p.i.): 0.034 ± 0.005 % ID | % ID Urine ([1]; 30 min p.i.): 0.3 ± 0.2 % ID | Total brain uptake ([1]; 30 min p.i.): 0.93 ± 0.2 % ID | SUV Blood ([1]; 30 min p.i.): 0.40 ± 0.01 | SUV Cerebellum ([1]; 30 min p.i.): 2.33 ± 0.04 | SUV Cerebrum total ([1]; 30 min p.i.): 1.66 ± 0.03 | SUV Cortex ([1]; 30 min p.i.): 1.87 ± 0.02 | SUV Hippocampus ([1]; 30 min p.i.): 1.57 ± 0.03 | SUV Striatum ([1]; 30 min p.i.): 2.31 ± 0.04 | % ID Blood ([1]; 60 min p.i.): 3.3 % ID and 3.3 ± 0.2 % ID | % ID Carcass ([1]; 60 min p.i.): 62.8 ± 2.5 % ID | % ID Cerebellum ([1]; 60 min p.i.): 0.144 ± 0.021 % ID | % ID Cerebrum total ([1]; 60 min p.i.): 0.596 ± 0.128 % ID | % ID Cortex ([1]; 60 min p.i.): 0.097 ± 0.039 % ID | % ID Heart ([1]; 60 min p.i.): 1.3 ± 0.3 % ID | % ID Hippocampus ([1]; 60 min p.i.): 0.021 ± 0.005 % ID | % ID Intestines ([1]; 60 min p.i.): 11.1 ± 0.9 % ID | % ID Kidneys ([1]; 60 min p.i.): 2.9 ± 0.4 % ID | % ID Liver ([1]; 60 min p.i.): 15.4 ± 0.9 % ID | % ID Lungs ([1]; 60 min p.i.): 0.5 ± 0.1 % ID | % ID Rest of cerebrum ([1]; 60 min p.i.): 0.450 ± 0.086 % ID | % ID Spleen + Pancreas ([1]; 60 min p.i.): 1.3 ± 0.2 % ID | % ID Stomach ([1]; 60 min p.i.): 1.6 ± 0.3 % ID | % ID Striatum ([1]; 60 min p.i.): 0.029 ± 0.009 % ID | % ID Urine ([1]; 60 min p.i.): 0.6 ± 0.1 % ID | % ID present in liver and intestines ([1]; 60 min p.i.): 26.5 % ID | % ID present in the urinary system ([1]; 60 min p.i.): 3.5 % ID | Total brain uptake ([1]; 60 min p.i.): 0.76 ± 0.1 % ID | SUV Blood ([1]; 60 min p.i.): 0.50 ± 0.00 | SUV Cerebellum ([1]; 60 min p.i.): 1.68 ± 0.04 | SUV Cerebrum total ([1]; 60 min p.i.): 1.40 ± 0.03 | SUV Cortex ([1]; 60 min p.i.): 1.34 ± 0.02 | SUV Hippocampus ([1]; 60 min p.i.): 1.13 ± 0.02 | SUV Striatum ([1]; 60 min p.i.): 1.78 ± 0.04 | % ID present in the carcass ([1]; at all time points examined): ~56 % ID | effect of self-chase on brain radioactivity (mGluR2; B-4 3 mg/kg i.v. 30 min after tracer): significant displacement | effect of self-blocking on brain uptake (mGluR2; B-4 10 mg/kg s.c. 30 min prior to tracer): lower brain uptake and faster wash-out | time at which maximum radioactivity concentration in brain is reached (mGluR2; baseline scan): about 9 min p.i. | time until which maximum radioactivity concentration stays constant (mGluR2; baseline scan, followed by wash-out): about 27 min p.i. | % reduction of SUV (total brain) due to chase (mGluR2; chase compound B 4 mg/kg i.v.): 70% | character of tracer binding to mGluR2 in vivo (mGluR2; concluded from blocking/chase microPET experiments): binds reversible and specific to mGluR2 | SUV (total brain) before chase (mGluR2; maximum SUV, chase compound B 4 mg/kg i.v. 30 min after tracer): 1.05 | SUV (total brain) after chase (mGluR2; minimum SUV, chase compound B 4 mg/kg i.v. 30 min after tracer): 0.32
